This note sets out measurements from ChEMBL document CHEMBL1201862, “PubChem BioAssay data set” (2004).

Some test systems named below: HCT-15; HL-60; SF-539; CCRF-CEM; EKVX; 786-0; SF-268; ACHN; SNB-75; CAKI-1; U-251; SK-MEL-2; HOP-62; A498; MOLT-4; OVCAR-5.
What all share (assay): DTP human tumour cell line panel, 48 h

Broadly, the GI50 is the concentration at which growth is held to half of that of the control.

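These data come from cells grown in 96-well plates and exposed to compound for 48 hours at five concentrations. GI50 = concentration required for 50% inhibition of growth.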 Activity calls are given as the source filed them. No stated cut-off is given here; in the data, active = GI50 up to about 1.1 µM and inactive = higher.

Consider `Nc1nc(Cl)cc(NCCCCCCCCNc2cc(Cl)nc(N)n2)n1`, for which the GI50 with HCT-15 is 8.59 µM; in the experiment on HL-60, 1.46 µM (inactive); in the experiment with SF-539, 28.7 µM (inactive); with CCRF-CEM, 73.3 µM (inactive); in the experiment with EKVX it was > 100 µM (inactive); in the experiment on 786-0 it was 25.8 µM (inactive). For the same molecule, the GI50 in the experiment with SF-268 is 36.8 µM (inactive); with ACHN, 0.221 µM (active); with SNB-75, 25.9 µM (inactive); in the experiment on CAKI-1, 8.81 µM (inactive); with U-251 it was 25.6 µM (inactive); in the experiment with SK-MEL-2 it was 13.5 µM (inactive). Moreover, in the experiment on HOP-62, the GI50 was 27.8 µM (inactive).

For the molecule `O=C(O)c1c([N+](=O)[O-])cc(C(F)(F)F)cc1[N+](=O)[O-]`, the GI50 in the experiment on HCT-15 is above 100 µM; in the experiment with HL-60, > 100 µM (inactive); with SF-539, > 100 µM (inactive); with A498 it was > 100 µM (inactive); with CCRF-CEM, > 100 µM (inactive); in the experiment with EKVX, > 100 µM (inactive). In addition, the GI50 in the experiment on 786-0, with SF-268, with ACHN, in the experiment with MOLT-4, with CAKI-1 and in the experiment on U-251 was > 100 µM (inactive) in each case. Further, the GI50 in the experiment on SK-MEL-2, in the experiment on HOP-62 and in the experiment on OVCAR-5 was > 100 µM (inactive) throughout.

As for `O=C1O[C@H](c2ccccc2)[C@@H]2CC3(CCN12)OCCO3`, the GI50 with HCT-15 is above 100 µM; with HL-60 it was > 100 µM (inactive); in the experiment on SF-539 it was > 100 µM (inactive); in the experiment on A498, > 100 µM (inactive); in the experiment with CCRF-CEM, > 100 µM (inactive); with EKVX, > 100 µM (inactive). The GI50 in the experiment with 786-0, in the experiment with SF-268, in the experiment with ACHN, in the experiment with MOLT-4, in the experiment with CAKI-1 and with U-251 was > 100 µM (inactive) throughout. In addition, the GI50 in the experiment with SK-MEL-2, in the experiment with HOP-62 and with OVCAR-5 was > 100 µM (inactive) each time.

On to `CC(CCCOC(c1ccccc1)(c1ccccc1)c1ccccc1)OC(=O)Nc1ccccc1` (configuration not stated), for which the 50% growth inhibitory concentration (GI50) was 14.4 µM with HCT-15; 11.6 µM (inactive) in the experiment with HL-60; 17.8 µM (inactive) with SF-539; 14.6 µM (inactive) with CCRF-CEM; 16.1 µM (inactive) in the experiment on 786-0; 12.8 µM (inactive) in the experiment with SF-268. Besides, the GI50 is 13.6 µM (inactive) with ACHN; 4.55 µM (inactive) in the experiment on MOLT-4; 14.5 µM (inactive) with SNB-75; 13.5 µM (inactive) in the experiment with CAKI-1; 13.6 µM (inactive) in the experiment with U-251; 14.8 µM (inactive) with HOP-62. In the experiment on OVCAR-5, the GI50 was 13.7 µM (inactive).

Regarding `CCCCCCCCOCC(O)COC` (configuration not stated), the GI50 is above 100 µM in the experiment with HCT-15; > 100 µM (inactive) in the experiment on HL-60; > 100 µM (inactive) in the experiment with A498; > 100 µM (inactive) with CCRF-CEM; > 100 µM (inactive) with 786-0; > 100 µM (inactive) in the experiment on SF-268. Moreover, the GI50 with ACHN, in the experiment on MOLT-4, in the experiment with CAKI-1, in the experiment with U-251, in the experiment with HOP-62 and with OVCAR-5 was > 100 µM (inactive) in each case.

Regarding `COc1cc2cnc3c4cc(OC(C)C)c(OC)cc4ccc3c2cc1OC`, the concentration for 50% growth inhibition (GI50) with HCT-15 was above 100 µM; with SF-539, > 100 µM (inactive); in the experiment with A498, > 100 µM (inactive); with CCRF-CEM, > 100 µM (inactive); with EKVX, > 100 µM (inactive); in the experiment with 786-0, > 100 µM (inactive). Besides, the GI50 with SF-268, with ACHN, in the experiment on MOLT-4, with SNB-75, in the experiment on CAKI-1 and with U-251 was > 100 µM (inactive) each time. In addition, the GI50 in the experiment on SK-MEL-2, in the experiment on HOP-62 and in the experiment with OVCAR-5 was > 100 µM (inactive) in each case.

With `Cn1ncc2ccc3[nH]c4ccccc4c(=O)c3c21`, the GI50 in the experiment on HCT-15 is 22.9 µM; in the experiment with HL-60, 27.9 µM (inactive); with A498, 22.4 µM (inactive); with CCRF-CEM, 38.3 µM (inactive); in the experiment on EKVX it was 42 µM (inactive); in the experiment with 786-0 it was 36.5 µM (inactive). For the same molecule, the GI50 in the experiment with SF-268 is 28.4 µM (inactive); in the experiment on ACHN, 22.6 µM (inactive); in the experiment with MOLT-4, 28.9 µM (inactive); in the experiment with SNB-75, 19.9 µM (inactive); with CAKI-1 it was 23.4 µM (inactive); with U-251 it was 15.7 µM (inactive). Besides, the GI50 in the experiment on SK-MEL-2 is 33.1 µM (inactive); in the experiment on HOP-62, 26.5 µM (inactive); in the experiment on OVCAR-5, 33.6 µM (inactive).

Regarding `O=C(/C(=C/c1ccc(Cl)cc1)c1ccccc1)c1ccccc1`, the GI50 with HCT-15 is 15.4 µM; with HL-60, 19.9 µM (inactive); in the experiment with SF-539, 17.4 µM (inactive); in the experiment on A498 it was 23.6 µM (inactive); in the experiment with CCRF-CEM, 32.4 µM (inactive); with EKVX, 26.5 µM (inactive). In addition, the GI50 in the experiment with 786-0 is 22.3 µM (inactive); in the experiment on SF-268 it was 18.2 µM (inactive); with ACHN, 19.7 µM (inactive); with MOLT-4, 17.8 µM (inactive); in the experiment with SNB-75, 22.8 µM (inactive); in the experiment on U-251, 17 µM (inactive). Moreover, the results for the GI50 with SK-MEL-2, in the experiment on HOP-62 and in the experiment with OVCAR-5 were 20.4 µM (inactive), 25.9 µM (inactive) and 22.6 µM (inactive), respectively.

For `CCC1(C(=O)OC)CCc2c(OC)ccc(OC)c2C1=O` (configuration not stated), the GI50 with HCT-15 is above 100 µM; in the experiment with HL-60 it was > 100 µM (inactive); in the experiment on SF-539, > 100 µM (inactive); with A498, > 100 µM (inactive); in the experiment with CCRF-CEM, > 100 µM (inactive); in the experiment with EKVX it was > 100 µM (inactive). Further, the GI50 in the experiment with 786-0, with SF-268, in the experiment on ACHN, in the experiment on MOLT-4, with CAKI-1 and in the experiment with U-251 was > 100 µM (inactive) in each case. The GI50 in the experiment on SK-MEL-2, in the experiment with HOP-62 and with OVCAR-5 was > 100 µM (inactive) each time.

With `C/C(CCn1[nH]c(=O)ccc1=O)=N\NC(=O)C(N)=O`, the GI50 in the experiment on HCT-15 is above 100 µM; in the experiment with HL-60, > 100 µM (inactive); in the experiment with SF-539 it was > 100 µM (inactive); in the experiment on A498, > 100 µM (inactive); with EKVX, > 100 µM (inactive); with 786-0, > 100 µM (inactive). The GI50 in the experiment with SF-268, with ACHN, with SNB-75, in the experiment on CAKI-1, in the experiment with U-251 and with SK-MEL-2 was > 100 µM (inactive) throughout. The GI50 in the experiment with HOP-62 and in the experiment with OVCAR-5 was > 100 µM (inactive) throughout.

Regarding `Cc1nc(Nc2ccc([N+](=O)[O-])cc2)sc1C(/C=C/c1ccc(N(C)C)cc1)=N/NC(=O)c1ccccc1`, the GI50 is 29.6 µM in the experiment on HCT-15; 22.6 µM (inactive) in the experiment on HL-60; 42.9 µM (inactive) in the experiment with SF-539; 38.3 µM (inactive) with CCRF-CEM; 41.2 µM (inactive) with EKVX; 85.9 µM (inactive) in the experiment on 786-0. Besides, the GI50 with SF-268 was 43 µM (inactive); with ACHN it was 39.6 µM (inactive); with MOLT-4, 41.9 µM (inactive); with SNB-75, > 100 µM (inactive); with CAKI-1 it was > 100 µM (inactive); in the experiment on U-251 it was 56.6 µM (inactive). In addition, the GI50 in the experiment on SK-MEL-2 is 92 µM (inactive); in the experiment with HOP-62, 40 µM (inactive); in the experiment with OVCAR-5, > 100 µM (inactive).

On to `Cc1c(Cl)cccc1N1C(=O)C(Cl)=C(Cl)C1=O`, for which the GI50 in the experiment with HCT-15 was above 76.9 µM; with SF-539, > 100 µM (inactive); in the experiment with A498, > 100 µM (inactive); with CCRF-CEM, 16.4 µM (inactive); in the experiment with EKVX, > 100 µM (inactive); in the experiment on 786-0, 98.6 µM (inactive). Besides, the GI50 is > 100 µM (inactive) in the experiment on SF-268; > 100 µM (inactive) in the experiment with ACHN; 17.1 µM (inactive) with MOLT-4; > 100 µM (inactive) in the experiment on SNB-75; > 51.8 µM (inactive) with CAKI-1; > 100 µM (inactive) with U-251. Moreover, the GI50 with SK-MEL-2, in the experiment with HOP-62 and in the experiment with OVCAR-5 was > 100 µM (inactive) throughout.

As to `CCOC(=O)C[C@@]12CCCNC1(C)CCc1ccccc12` (some centres not stated), the GI50 was above 100 µM in the experiment on HCT-15; > 100 µM (inactive) in the experiment on HL-60; > 100 µM (inactive) in the experiment with SF-539; > 100 µM (inactive) in the experiment on CCRF-CEM; > 100 µM (inactive) with EKVX; > 100 µM (inactive) with 786-0. Further, the GI50 in the experiment with ACHN, in the experiment on MOLT-4, in the experiment on U-251, with SK-MEL-2 and in the experiment on HOP-62 was > 100 µM (inactive) in each case.

Turning to `C[C@@H]1C[C@@H]([C@H](O)CC2CC(=O)NC(=O)C2)C(=O)[C@@H](C)C1` [CYCLOHEXIMIDE], the 50% growth inhibitory concentration (GI50) in the experiment on HCT-15 was 0.0433 µM; with HL-60 it was 0.0485 µM (active); in the experiment with SF-539, 0.0431 µM (active); with CCRF-CEM it was < 0.0186 µM (active); in the experiment with EKVX it was 0.0933 µM (active); with 786-0 it was 0.0372 µM (active). Moreover, the concentration for 50% growth inhibition (GI50) is 0.0438 µM (active) with SF-268; 0.0291 µM (active) in the experiment with ACHN; < 0.0176 µM (active) in the experiment with MOLT-4; 0.083 µM (active) in the experiment on SNB-75; 0.0603 µM (active) in the experiment on U-251; 0.106 µM (active) in the experiment on SK-MEL-2. Moreover, the GI50 with HOP-62 was 0.0596 µM (active); in the experiment with OVCAR-5 it was 0.141 µM (active).
